Experimental data: patent publication US20250074920A1, “MACROCYCLIC COMPOUNDS AND USE AS KINASE INHIBITORS” (BLOSSOMHILL THERAPEUTICS, INC., priority 2022, published 2025)

Assays:
Assay in all cases: KINOMEscan kinase binding assay
[1] = system: FLT1; conditions: at 1 μM
Protocol: (§1) Kinase binding assays were performed at Eurofins/DiscoveRx using the general KINOMEscan Protocol (Fabian, M. A. et al., “A small molecule-kinase interaction map for clinical kinase inhibitors,” Nat. Biotechnol. 2005, 23(3):329-36). For most assays, kinase-tagged T7 phage strains were prepared in an E. coli host derived from the BL21 strain. E. coli were grown to log-phase and infected with T7 phage and incubated with shaking at 32° C. until lysis. The lysates were centrifuged and filtered to remove cell debris. The remaining kinases were produced in HEK-293 cells and subsequently tagged with DNA for qPCR detection. Streptavidin-coated magnetic beads were treated with biotinylated small molecule ligands for 30 minutes at room temperature to generate affinity resins for kinase assays. The liganded beads were blocked with excess biotin and washed with blocking buffer (SeaBlock (Pierce), 1% BSA, 0.05% Tween 20, 1 mM DTT) to remove unbound ligand and to reduce nonspecific binding. Binding reactions were assembled by combining kinases, liganded affinity beads, and test compounds in 1× binding buffer (20% SeaBlock, 0.17×PBS, 0.05% Tween 20, 6 mM DTT). All reactions were performed in polystyrene 96-well plates in a final volume of 0.135 mL. The assay plates were incubated at room temperature with shaking for 1 hour and the affinity beads were washed with wash buffer (1×PBS, 0.05% Tween 20). The beads were then re-suspended in elution buffer (1×PBS, 0.05% Tween 20, 0.5 μM non-biotinylated affinity ligand) and incubated at room temperature with shaking for 30 minutes. The kinase concentration in the eluates was measured by qPCR. Results for compounds tested in this assay at a given concentration are reported as “% Ctrl”, where lower numbers indicate stronger binding in the matrix. % Ctrl was calculated as (test compound signal-positive control signal)/(negative control signal-positive control signal)×100. Dissociation constants (Kds) for test compound-kinase interactions were calculated by measuring the amount of kinase captured on the solid support as a function of the test compound concentration.

[2] = system: FLT3(N841I); conditions: at 1 μM
Protocol: as §1

[3] = system: IGF1R; conditions: at 1 μM
Protocol: as §1

[4] = system: MST1R; conditions: at 1 μM
Protocol: as §1

[5] = system: PYK2; conditions: at 1 μM
Protocol: as §1

[6] = system: CSF1R-autoinhibited; conditions: at 1 μM
Protocol: as §1

[7] = system: KIT(A829P); conditions: at 1 μM
Protocol: as §1

[8] = system: ERBB3; conditions: at 1 μM
Protocol: as §1

[9] = system: EGFR(T790M); conditions: at 1 μM
Protocol: as §1

[10] = system: FRK; conditions: at 1 μM
Protocol: as §1

[11] = system: BLK; conditions: at 1 μM
Protocol: as §1

[12] = system: FAK; conditions: at 1 μM
Protocol: as §1

[13] = system: VEGFR2; conditions: at 1 μM
Protocol: as §1

[14] = system: SRC; conditions: at 1 μM
Protocol: as §1

[15] = system: EGFR(L861Q); conditions: at 1 μM
Protocol: as §1

[16] = system: ABL2; conditions: at 1 μM
Protocol: as §1

[17] = system: ABL1(M351T)-phosphorylated; conditions: at 1 μM
Protocol: as §1

[18] = system: KIT(D816V); conditions: at 1 μM
Protocol: as §1

[19] = system: EPHB1; conditions: at 1 μM
Protocol: as §1

[20] = system: EGFR(G719S); conditions: at 1 μM
Protocol: as §1

[21] = system: EGFR(S752-1759del); conditions: at 1 μM
Protocol: as §1

[22] = system: ABL1(T315I)-nonphosphorylated; conditions: at 1 μM
Protocol: as §1

[23] = system: ABL1(F317L)-phosphorylated; conditions: at 1 μM
Protocol: as §1

[24] = system: DDR1; conditions: at 1 μM
Protocol: as §1

[25] = system: FLT3(D835H); conditions: at 1 μM
Protocol: as §1

[26] = system: ABL1(E255K)-phosphorylated; conditions: at 1 μM
Protocol: as §1

[27] = system: MET(Y1235D); conditions: at 1 μM
Protocol: as §1

[28] = system: BTK; conditions: at 1 μM
Protocol: as §1

[29] = system: EPHA7; conditions: at 1 μM
Protocol: as §1

[30] = system: ZAP70; conditions: at 1 μM
Protocol: as §1

[31] = system: TIE1; conditions: at 1 μM
Protocol: as §1

[32] = system: FGFR1; conditions: at 1 μM
Protocol: as §1

[33] = system: FLT3(R834Q); conditions: at 1 μM
Protocol: as §1

[34] = system: RET(V804L); conditions: at 1 μM
Protocol: as §1

[35] = system: FGFR4; conditions: at 1 μM
Protocol: as §1

[36] = system: JAK1(JH1domain-catalytic); conditions: for % Ctrl: JAK1(JH1domain-catalytic), at 1 μM; for Kd: read-out: JAK1(JH1 domain-catalytic) Kd
Protocol: as §1

[37] = system: EPHB2; conditions: at 1 μM
Protocol: as §1

[38] = system: TNK2; conditions: at 1 μM
Protocol: as §1

[39] = system: ERBB4; conditions: at 1 μM
Protocol: as §1

[40] = system: ABL1(T315I)-phosphorylated; conditions: at 1 μM
Protocol: as §1

[41] = system: EGFR; conditions: at 1 μM
Protocol: as §1

Cc1cc2c([nH]1)/C=C1\C(=O)Nc3ccc(cc31)-c1c(nn(C)c1C)OCCCN(C)C2=O [Cpd. 1, [3a(4)Z]-6,9,15,16-tetramethyl-9,10,11,12-tetrahydro-15H-1,17-(ethanediylidene)pyrazolo[4,3-n]dipyrrolo[3,2-g:3′,4′-j][1,5]oxazacyclopentadecine-3,8(2H,5H)-dione]
% Ctrl [1]: 97%
% Ctrl [2]: 97%
% Ctrl [3]: 100%
% Ctrl [4]: 100%
% Ctrl [5]: 100%
% Ctrl [6]: 82%
% Ctrl [7]: 93%
% Ctrl [8]: 100%
% Ctrl [9]: 88%
% Ctrl [10]: 93%
% Ctrl [11]: 87%
% Ctrl [12]: 85%
% Ctrl [13]: 93%
% Ctrl [14]: 89%
% Ctrl [15]: 82%
% Ctrl [16]: 87%
% Ctrl [17]: 100%
% Ctrl [18]: 97%
% Ctrl [19]: 87%
% Ctrl [20]: 80%
% Ctrl [21]: 88%
% Ctrl [22]: 83%
% Ctrl [23]: 86%
% Ctrl [24]: 97%
% Ctrl [25]: 96%
% Ctrl [26]: 92%
% Ctrl [27]: 98%
% Ctrl [28]: 94%
% Ctrl [29]: 91%
% Ctrl [30]: 94%
% Ctrl [31]: 100%
% Ctrl [32]: 100%
% Ctrl [33]: 97%
% Ctrl [34]: 82%
% Ctrl [35]: 95%
% Ctrl [36]: 82%
Kd [36]: > 10 µM
% Ctrl [37]: 97%
% Ctrl [38]: 100%
% Ctrl [39]: 95%
% Ctrl [40]: 95%
% Ctrl [41]: 100%

Cc1cc2c([nH]1)/C=C1\C(=O)Nc3ccc(cc31)-c1c(nn(C)c1C)COCCN(C)C2=O [Cpd. 2, [3a(4)Z]-6,9,15,16-tetramethyl-10,11,13,15-tetrahydro-2H-1,17-(ethanediylidene)pyrazolo[4,3-m]dipyrrolo[3,2-f:3′,4′-i][1,4]oxazacyclopentadecine-3,8(5H,9H)-dione]
% Ctrl [1]: 79%
% Ctrl [2]: 24%
% Ctrl [3]: 88%
% Ctrl [4]: 100%
% Ctrl [5]: 100%
% Ctrl [6]: 100%
% Ctrl [7]: 92%
% Ctrl [8]: 100%
% Ctrl [9]: 85%
% Ctrl [10]: 98%
% Ctrl [11]: 98%
% Ctrl [12]: 96%
% Ctrl [13]: 48%
% Ctrl [14]: 100%
% Ctrl [15]: 62%
% Ctrl [16]: 96%
% Ctrl [17]: 57%
% Ctrl [18]: 60%
% Ctrl [19]: 99%
% Ctrl [20]: 77%
% Ctrl [21]: 80%
% Ctrl [22]: 17%
% Ctrl [23]: 78%
% Ctrl [24]: 100%
% Ctrl [25]: 31%
% Ctrl [26]: 45%
% Ctrl [27]: 87%
% Ctrl [28]: 100%
% Ctrl [29]: 89%
% Ctrl [30]: 96%
% Ctrl [31]: 61%
% Ctrl [32]: 100%
% Ctrl [33]: 50%
% Ctrl [34]: 80%
% Ctrl [35]: 100%
% Ctrl [36]: 100%
Kd [36]: > 10 µM
% Ctrl [37]: 97%
% Ctrl [38]: 89%
% Ctrl [39]: 67%
% Ctrl [40]: 5.3%
% Ctrl [41]: 66%

Cc1cc2c([nH]1)/C=C1\C(=O)Nc3c(Cl)cc(cc31)-c1cn(C)nc1COC[C@@H](C)NC2=O [Cpd. 3, [3a(4)Z,10R]-20-chloro-6,10,15-trimethyl-10,11,13,15-tetrahydro-2H-1,17-(ethanediylidene)pyrazolo[4,3-m]dipyrrolo[3,2-f:3′,4′-i][1,4]oxazacyclopentadecine-3,8(5H,9H)-dione]
% Ctrl [1]: 92%
% Ctrl [2]: 90%
% Ctrl [3]: 95%
% Ctrl [4]: 98%
% Ctrl [5]: 94%
% Ctrl [6]: 71%
% Ctrl [7]: 99%
% Ctrl [8]: 74%
% Ctrl [9]: 87%
% Ctrl [10]: 97%
% Ctrl [11]: 92%
% Ctrl [12]: 100%
% Ctrl [13]: 92%
% Ctrl [14]: 100%
% Ctrl [15]: 98%
% Ctrl [16]: 97%
% Ctrl [17]: 99%
% Ctrl [18]: 97%
% Ctrl [19]: 100%
% Ctrl [20]: 100%
% Ctrl [21]: 94%
% Ctrl [22]: 100%
% Ctrl [23]: 93%
% Ctrl [24]: 98%
% Ctrl [25]: 100%
% Ctrl [26]: 100%
% Ctrl [27]: 100%
% Ctrl [28]: 86%
% Ctrl [29]: 100%
% Ctrl [30]: 55%
% Ctrl [31]: 93%
% Ctrl [32]: 80%
% Ctrl [33]: 100%
% Ctrl [34]: 98%
% Ctrl [35]: 92%
% Ctrl [36]: 100%
Kd [36]: > 10 µM
% Ctrl [37]: 99%
% Ctrl [38]: 97%
% Ctrl [39]: 96%
% Ctrl [40]: 69%
% Ctrl [41]: 79%

C[C@@H]1COCc2nn(C)cc2-c2cc(Cl)c3c(c2)/C(=C/c2[nH]ccc2C(=O)N1)C(=O)N3 [Cpd. 4, [3a(4)Z,10R]-20-chloro-10,15-dimethyl-10,11,13,15-tetrahydro-2H-1,17-(ethanediylidene)pyrazolo[4,3-m]dipyrrolo[3,2-f:3′,4′-i][1,4]oxazacyclopentadecine-3,8(5H,9H)-dione]
% Ctrl [1]: 92%
% Ctrl [2]: 78%
% Ctrl [3]: 94%
% Ctrl [4]: 100%
% Ctrl [5]: 92%
% Ctrl [6]: 75%
% Ctrl [7]: 92%
% Ctrl [8]: 76%
% Ctrl [9]: 90%
% Ctrl [10]: 78%
% Ctrl [11]: 100%
% Ctrl [12]: 96%
% Ctrl [13]: 94%
% Ctrl [14]: 100%
% Ctrl [15]: 89%
% Ctrl [16]: 97%
% Ctrl [17]: 94%
% Ctrl [18]: 100%
% Ctrl [19]: 97%
% Ctrl [20]: 96%
% Ctrl [21]: 93%
% Ctrl [22]: 100%
% Ctrl [23]: 90%
% Ctrl [24]: 20%
% Ctrl [25]: 65%
% Ctrl [26]: 94%
% Ctrl [27]: 100%
% Ctrl [28]: 78%
% Ctrl [29]: 100%
% Ctrl [30]: 56%
% Ctrl [31]: 84%
% Ctrl [32]: 75%
% Ctrl [33]: 100%
% Ctrl [34]: 95%
% Ctrl [35]: 88%
% Ctrl [36]: 94%
Kd [36]: > 10 µM
% Ctrl [37]: 96%
% Ctrl [38]: 100%
% Ctrl [39]: 100%
% Ctrl [40]: 35%
% Ctrl [41]: 82%
